The assay concerns the target Neuraminidase (Influenza A virus (strain A/Puerto Rico/8/1934 H1N1), UniProt P03468). Nature of the assay: Inhibition of influenza A sialidase in vitro.

SMILES strings stand for the structures.

Sequence of Neuraminidase (P03468 whole entry): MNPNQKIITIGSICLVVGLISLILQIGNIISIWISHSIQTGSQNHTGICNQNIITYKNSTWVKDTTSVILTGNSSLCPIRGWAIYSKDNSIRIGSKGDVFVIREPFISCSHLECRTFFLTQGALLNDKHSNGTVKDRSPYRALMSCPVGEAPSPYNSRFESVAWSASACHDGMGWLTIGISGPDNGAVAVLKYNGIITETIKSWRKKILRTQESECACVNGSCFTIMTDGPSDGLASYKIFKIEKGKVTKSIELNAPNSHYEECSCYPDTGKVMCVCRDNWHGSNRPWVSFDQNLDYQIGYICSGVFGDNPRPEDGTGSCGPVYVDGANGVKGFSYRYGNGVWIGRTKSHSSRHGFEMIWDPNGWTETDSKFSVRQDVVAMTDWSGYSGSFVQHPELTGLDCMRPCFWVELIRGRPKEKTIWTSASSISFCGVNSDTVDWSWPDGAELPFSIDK

As to `[C][C][C][C][C]O[C@H]([C][C])[C@@H]1OC(C([O])=O)=[C][C@H](N=C([N])[N])[C@H]1[N]C([C])=O`, the IC50 (in general, the concentration that gives 50% inhibition) came to 0.0188 µM. As to `[C]C(=O)[N][C][C]O[C@@H]([C@@H]1OC(C([O])=O)=[C][C@H](N=C([N])[N])[C@H]1[N]C([C])=O)[C@H]([O])[C][O]`, the midpoint of inhibition, the IC50, lay at 0.0184 µM.
